# Measurements as given in patent publication US5591615A, “Mutant of Geotrichum candidum which produces novel enzyme system to selectively hydrolyze triglycerides” (priority 1995, dated 1997).
# Key:
# [1] = tested on: Geotrichum candidum mutant 9-2; test: UNLipase production by mutant in culture medium; type: cell-based
# Description: It was determined early in our work that having fat or oil in the medium induced other lipases produced by Geotrichum strains. Thus fat or oil was eliminated from the medium. Then improvements for Bacto-Peptone were sought. A series of peptones or other organic nitrogen sources were tested including soy peptone, trypticase® (BBL) peptone, casamino acids, NZ amine® (Sheffield Products) and casein.
# Next, the salt constituents were examined in the standard medium. […] The inclusion of these two salts in the medium gave a doubling of measured hydrolyric activity when assayed using the standard assay. […] Fifty mls of this medium are placed in 500 ml baffled flasks (Bellco) then shaken at 250 rpms at 25°-30° C.
# The next goal was to find a mutant with enhanced productivity. Thus the mutagenesis of mutant 9-2 was undertaken as described above but the selection protocol was altered. In this case, after the 8° C. recovery period the mutant suspensions were placed in 50 ml sterile test tubes and frozen at -55° C. The period of freezing was then interrupted by thawing periods (about 4 hours) and followed by freezing at -55° C. Mutants were screened for lipase activity and selectivity. One mutant, 9-2-3-9, survived a cycle of 3 weeks of freezing which had been interrupted by 3 thaw cycles. The mutant 9-2-3-9 was distinctly different from its parent (9-2) in its colony morphology when grown on nutrient agar. The colony type was much more aerial than 9-2.
# The mutant 9-2 was grown in the medium described above. Fifty mls were added to 500 ml baffled flasks (Bellco) and placed on a shaker maintained at 30° C. and shaken at 250 rpms. Production reaches a peak at about 30 hours, then declines slightly and remains low. The enzyme was harvested at 30 hours for a series of hydrolyric tests. The collection of the enzyme involves centrifugation of the broth at 5000 rpms in the Beckman GSA rotor for 10 minutes. The cell free broth was then decanted from the cell pellet. In some cases, high activity suspension were produced by a 70% ammonium sulfate precipitation of the broth.
# UNLipase [2] = test: Hydrolysis of pure triglycerides with UNLipase; type: biochemical, Geotrichum candidum; details: 1 hour at 37 degrees C; for ratio of hydrolysis for triolein:tripalmitolein:trilinolein: pure triglyceride in isooctane, relative to triolein 100
# Description: The Enzyme was harvested using centrifugation at 5000 rpms, for example, in a Beckman GSA rotor for 10 minutes. This cell-free preparation was used to determine hydrolysis, esterification and transesterification properties.
# Substrates were prepared in isooctane (2,2,4-trimethylpentane) at about 0.8 grams per 20 ml solvent. Assay procedures for determining lipase activity were those described by Kwon, D. Y. and Rhee, J. S., J. Amer. Oil Chem Soc. 63:89-92(1986). One modification was to perform some assays for one hour under nonagitated conditions to avoid difficulties in reproducing agitation rates.
# Hydrolysis was greatest for triolein, with the ratio of hydrolysis for triolein: tripalmitolein:trilinolein of 100:65:82. […] The ratio of hydrolysis of triolein to tripalmitin was approximately 33:1.
# UNLipase [3] = test: Effect of metal ions on UNLipase; type: biochemical, Geotrichum candidum; details: 25 mM concentration
# UNLipase [4] = test: Esterification of fatty acid mixture from pressure-split beef tallow (PFA); type: biochemical, Geotrichum candidum; details: HPLC or GC; pentadecanoic acid internal standard
# Description: The esterification of fatty acid mixtures was evaluated using typical fatty acid mixtures derived from pressure-split beef tallow, henceforth referred to as PFA. Samples of PFA were spiked with pentadecanoic acid as an internal standard. The resulting products were analyses by either HPLC (reverse phase C-18 column) or GC (FFAP capillary column).
# UNLipase [5] = test: Hydrolysis of simple (methyl) esters with UNLipase; type: biochemical, Geotrichum candidum; details: about 50 mM in isooctane, 37 degrees C, 4 hours
# From the text: Simple esters were subjected to UNLipase to determine the scope and extent of UNLipase selectivity. The esters evaluated were methyl esters of propionic, caprylic, nonanoic, caproic, palmitic and oleic acids. […] Approximately 2% of the methyl palmitate reacted, whereas 67% of the methyl oleate was hydrolyzed.
# UNLipase [6] = test: Fatty acid selectivity of lipase esterification; type: biochemical, Geotrichum candidum
# Description: These preparations contained 50-200 mg of fatty acid, 0.5 ml concentrated broth, 0.5 ml water (buffer) and 100-300 ul of alcohol. Reactions were run at either 27, 30 or 37 degrees Celsius for 16 to 24 hours. The reaction was stopped by adding 2.0 ml ether.
# Fatty acid and ester were extracted into ether and evaluated by thin layer chromatography. The esterification of oleic acid with various alcohols is present in Table 1.
# The fatty acid selectivity of the lipase in esterification reactions was also evaluated in the manner described above, with results analyzed by thin layer chromatography, GC, HPLC and IR.
# G. candidum lipase = details: cited from earlier work
# [7] = added to culture medium of mutant 9-2
structure (smiles),measurement,setting,value
OC[C@@H](O)[C@@H](O)[C@H](O)[C@H](O)CO [mannitol],effect on UNLipase production,[1]; [7],no effect
CCCCCC/C=C\CCCCCCCC(=O)OCC(COC(=O)CCCCCCC/C=C\CCCCCC)OC(=O)CCCCCCC/C=C\CCCCCC [tripalmitolein],ratio of hydrolysis for triolein:tripalmitolein:trilinolein,UNLipase [2],65
OC[C@H]1O[C@H](O[C@H]2[C@H](O)[C@@H](O)C(O)O[C@@H]2CO)[C@H](O)[C@@H](O)[C@@H]1O (mixture of isomers) [maltose],effect on UNLipase production,[1]; [7],no effect
[Mg+2] [magnesium ions],effect on UNLipase,UNLipase [3],activated
CCCCC/C=C\C/C=C\CCCCCCCC(=O)O [Linoleic],ester formation in PFA mixture,UNLipase [4],detected
O=C[C@H](O)[C@@H](O)[C@H](O)[C@H](O)CO [glucose],effect on UNLipase production,[1]; [7],inhibited
CCC(=O)OC [methyl ester of propionic acid],hydrolysis by UNLipase,UNLipase [5],not hydrolyzed
CCCCCCCCCCCCCCCCCC(=O)O [Stearic],ester formation in PFA mixture,UNLipase [4],not esterified
CCCCCCCCCCCCCCCC(=O)OC [methyl palmitate],methyl ester hydrolyzed,UNLipase [5],Approximately 2%
CCCCC/C=C\C/C=C\CCCCCCCC(=O)OCC(COC(=O)CCCCCCC/C=C\C/C=C\CCCCC)OC(=O)CCCCCCC/C=C\C/C=C\CCCCC [trilinolein],ratio of hydrolysis for triolein:tripalmitolein:trilinolein,UNLipase [2],82
"CCCCCCCC/C=C\CCCCCCCC(=O)O [Oleic, oleic acid]",ester formation in PFA mixture,UNLipase [4],detected
CCCCCCCC/C=C\CCCCCCCC(=O)OCC(COC(=O)CCCCCCC/C=C\CCCCCCCC)OC(=O)CCCCCCC/C=C\CCCCCCCC [triolein],ratio of hydrolysis for triolein:tripalmitolein:trilinolein,UNLipase [2],100
CCCCCC/C=C\CCCCCCCC(=O)O [Palmitoleic],ester formation in PFA mixture,UNLipase [4],detected
CCCCCCCCC(=O)OC [methyl ester of nonanoic acid],hydrolysis by UNLipase,UNLipase [5],not hydrolyzed
CCCCCCCCCCCCCCCC(=O)OCC(COC(=O)CCCCCCCCCCCCCCC)OC(=O)CCCCCCCCCCCCCCC [tripalmitin],reactivity with UNLipase,UNLipase [2]; saturated fatty acid triglycerides,showed any reactivity
"C=CCCCCCCCCC(=O)O [Undecenoic acid, 10-undecenoic acid]",effect on esterification of oleic acid,UNLipase [6],inhibitor
O=P([O-])(O)O.[K+] [KH2 PO4],effect on UNLipase production,[1]; [7],benefit
CCCCCCCCCCCCCCC(=O)O [pentadecanoic acid],ester formation in PFA mixture,UNLipase [4],not esterified
O=C(CO)[C@@H](O)[C@H](O)[C@H](O)CO [fructose],effect on UNLipase production,[1]; [7],inhibited
O=S(=O)([O-])[O-].[Mg+2] [MgSO4],effect on UNLipase production,[1]; MgSO4 concentration increased to 0.5%,no further enhancement
same,effect on UNLipase production,[1]; [7],benefit
CCCCCCCCCCCCCCCC(=O)O [palmitic],ester formation in PFA mixture,UNLipase [4],not esterified
CCCCCCCCCCCCCC(=O)O [myristic],ester formation in PFA mixture,UNLipase [4],not esterified
CCCCCCCC/C=C\CCCCCCCC(=O)OC [methyl oleate],methyl ester hydrolyzed,UNLipase [5],67%
same,hydrolytic rate relative to palmitic methyl ester,G. candidum lipase,10 times
OC[C@H]1O[C@@](CO)(O[C@H]2O[C@H](CO)[C@@H](O)[C@H](O)[C@H]2O)[C@@H](O)[C@@H]1O [sucrose],effect on UNLipase production,[1]; [7],inhibited
CCCCCCCC(=O)OC [methyl ester of caprylic acid],hydrolysis by UNLipase,UNLipase [5],not hydrolyzed
[Ca+2] [calcium ions],effect on UNLipase,UNLipase [3],inhibited
same,effect on UNLipase production,[1]; [7],did not enhance
